Measurements taken from patent US8431530B2, “Compositions and methods for treating aids or cancer by inhibiting the secretion of microparticles” (priority 2009, dated 2013).

Key:
[1] = system: HIV-1wtNef-GFP vesicle secretion in Jurkat cells; assay: Nef-GFP co-transfection secretion assay; format: cell-based; conditions: 500 ng HIV-1wtNef-GFP + 7.8-500 ng peptide, Chariot
Protocol: In another experiment, Jurkat cells were co-transfected with 500 ng HIV-1wtNef-GFP and 7.8-500 ng of SMRwt peptide by Chariot. As shown in FIG. 3A the SMRwt peptide inhibits the vesicle secretion in Jurkat cells.

[2] = system: R7 in U937 monocytes; assay: p24 ELISA of supernatant after R7 co-transfection; format: cell-based, HIV; conditions: up to 36 days
Protocol: Jurkat cells, HEK293 cells, THP-1 monocytes and U937 monocytes were co-transfected with either R7 […] Nef SMR wt (antagonist) or with R7+Nef SMR mt (nonfunctional antagonist) by Chariot™ Kit. The transfection efficiency was 30-40%.
R7 is a clone containing the viral genome. Transfection into cells allows expression of the viral genome and ultimately virion formation and release. The amount of virion production in the extracellular supernatant is measured through p24 protein (viral protein).
At 2 hours, 3 days, 6 days, 9 days, 13 days, 15 days, 17 days, 20 days, 23 days, 27 days and 36 days post-transfection, 0.5 ml supernatant were collected from each plate, mixed with 0.5 ml fresh media and analyzed by p24 ELISA assay. 1.5 ml of supernatant were collected from each plate and spun in a TLA100 rotor at 400,000×g for 1 hour to create the pellets. The pellets were used for Western blot analysis with p24 mAb and Nef mAb.

[3] = system: R7 in Jurkat cells; assay: Electron microscopy of viral particle distribution; format: cell-based, HIV; conditions: R7 co-transfection, day 6 versus day 14
Excerpt: FIG. 4A is a composite of diagrams showing ELISA analysis of p24 concentration in Jurkat cells (panel A), HEK293 cells (panel B), THP-1 Monocytes (panel C) and U937 monocytes (panel D). FIG. 4B is a composite of confocal microscope pictures showing blocking of p24 release in Jurkat cells by SMRwt peptide (panel A) but not by SMRrmt peptide (panel B). FIG. 4C is a composite of confocal and electron microscope pictures showing viral particle distribution in Jurkat cells at day 6 post-transfection with R7 and SMRwt peptide (panel A-1) or with R7 and SMRmt peptide (panel B-1). FIG. 4D is a composite of confocal and electron microscope pictures showing viral particle distribution in Jurkat cells at day 14 post-transfection with R7 and SMRwt peptide (panel A-2) or with R7 and SMRmt peptide (panel B-2), FIG. 4E is a composite of confocal and electron microscope pictures showing viral particle distribution in subcellular structures in Jurkat cells at day 6 post-transfection with R7 and SMRwt peptide (panel A-1) or with R7 and SMRmt peptide (panel B-1) in Jurkat cells and at day 14 post-transfection with R7 and SMRwt peptide (panel A-2) or with R7 and SMRmt peptide (panel B-2) in Jurkat cells.
FIGS. 4C-4E are electron microscopic pictures showing Jurkat cells transfected with R7/SMRwt or […] at day 6 (FIG. 4C) and day 14 (FIG. 4D) post transfection. […]

In the case of H-VGFPVAAVGFPVDYKDDDDK-OH [SMRwt], the “vesicle secretion (Nef-GFP)” value [1] is reported as “inhibits the vesicle secretion in Jurkat cells in a dose-dependent manner”, the p24 in supernatant [2] is reported as “little p24” and the “release of virus as measured by EM” value [3] is reported as “delays release of virus from infected cells”.
